According to patent US11959122B2:

How the values were obtained:
[1] = tested on: microbial flora in the target watershed; settings: determined by EUCAST database; unit assumed; cited from earlier work
[2] = tested on: microbial flora in the target watershed; test: minimum inhibitory concentration (MIC) by EUCAST database and drug resistance prediction invalid concentration PNECr; settings: PNECR=MIC/AF, AF 10
Excerpt: Minimum inhibitory concentration (MIC) of some antibiotics and drug resistance prediction invalid concentration (PNECr) of microbes

**Q.** Which Observed MIC [1] does the source give for `CO/N=C(\C(=O)N[C@@H]1C(=O)N2C(C(=O)[O-])=C(C[n+]3cccc4c3CCC4)CS[C@H]12)c1csc(N)n1` [Cefpirome] here?
**A.** 4 µg/mL

**Q.** Which results are given for Mikafenjin?
**A.** PNECr [2]: 0.4; Observed MIC [1]: 4 µg/mL

**Q.** For `CO/N=C(\C(=O)N[C@@H]1C(=O)N2C(C(=O)O)=C(COC(C)=O)CS[C@H]12)c1csc(N)n1` [Cefotaxime], which Observed MIC [1] is on record?
**A.** 2 µg/mL

**Q.** Which results are given for Pefloxacin?
**A.** PNECr [2]: 400; Observed MIC [1]: 4000 µg/mL

**Q.** Which results are given for `CC[C@H]1OC(=O)C[C@@H](O)[C@H](C)[C@@H](O[C@@H]2O[C@H](C)[C@@H](O[C@H]3C[C@@](C)(O)[C@@H](O)[C@H](C)O3)[C@H](N(C)C)[C@H]2O)[C@@H](CC=O)C[C@@H](C)C(=O)/C=C/C(C)=C/[C@@H]1CO[C@@H]1O[C@H](C)[C@@H](O)[C@@H](OC)[C@H]1OC` [Tylosin]?
**A.** PNECr [2]: 200; Observed MIC [1]: 2000 µg/mL

**Q.** Which Observed MIC [1] does the source give for `O=C(O)c1cn(C2CC2)c2cc(N3CCNCC3)c(F)cc2c1=O` [Ciprofloxacin] here?
**A.** 2 µg/mL

**Q.** For `CCCCCCCCCC(=O)N[C@@H](Cc1c[nH]c2ccccc12)C(=O)N[C@H](CC(N)=O)C(=O)N[C@@H](CC(=O)O)C(=O)N[C@@H]1C(=O)NCC(=O)N[C@@H](CCCN)C(=O)N[C@@H](CC(=O)O)C(=O)N[C@H](C)C(=O)N[C@@H](CC(=O)O)C(=O)NCC(=O)N[C@H](CO)C(=O)N[C@@H]([C@H](C)CC(=O)O)C(=O)N[C@@H](CC(=O)c2ccccc2N)C(=O)O[C@@H]1C` [Daptomycin], which Observed MIC [1] is on record?
**A.** 32 µg/mL

**Q.** What does the source list for `N[C@@H]1[C@H]2CN(c3nc4c(cc3F)c(=O)c(C(=O)O)cn4-c3ccc(F)cc3F)C[C@@H]12` [Travafloxacin]?
**A.** PNECr [2]: 0.8; Observed MIC [1]: 8 µg/mL

**Q.** For FLORFENICOL, which PNECr [2] is on record?
**A.** 12.5

**Q.** And the Observed MIC [1]?
**A.** 125 µg/mL

**Q.** Which results are given for Narasin?
**A.** PNECr [2]: 12.5; Observed MIC [1]: 125 µg/mL

**Q.** For Cefalexin, which PNECr [2] is on record?
**A.** 25

**Q.** And the Observed MIC [1]?
**A.** 250 µg/mL

**Q.** What does the source list for `CC1(C)S[C@@H]2[C@H](NC(=O)[C@H](C(=O)O)c3ccsc3)C(=O)N2[C@H]1C(=O)O` [Ticarcillin]?
**A.** PNECr [2]: 25; Observed MIC [1]: 250 µg/mL

**Q.** With `CC(=O)N1CCN(c2ccc(OCC3COC(Cn4ccnc4)(c4ccc(Cl)cc4Cl)O3)cc2)CC1` (stereo not drawn) [Ketoconazole] as the molecule, how does the Observed MIC [1] read?
**A.** 4 µg/mL

**Q.** With `NNC(=O)c1ccncc1` [Isoniazide] as the molecule, how does the Observed MIC [1] read?
**A.** 64 µg/mL

**Q.** With Viomycin as the molecule, how does the PNECr [2] read?
**A.** 100

**Q.** What about the Observed MIC [1] of the same molecule?
**A.** 1000 µg/mL

**Q.** What does the source list for Tiamulin?
**A.** PNECr [2]: 50; Observed MIC [1]: 500 µg/mL

**Q.** What does the source list for Sulfamethoxazole?
**A.** PNECr [2]: 100; Observed MIC [1]: 1000 µg/mL

**Q.** With Streptomycin as the molecule, how does the PNECr [2] read?
**A.** 12.5

**Q.** What about the Observed MIC [1] of the same molecule?
**A.** 125 µg/mL

**Q.** For `CC[C@H]1OC(=O)[C@H](C)[C@@H](O[C@H]2C[C@@](C)(OC)[C@@H](O)[C@H](C)O2)[C@H](C)[C@@H](O[C@@H]2O[C@H](C)C[C@H](N(C)C)[C@H]2O)[C@](C)(O)C[C@@H](C)CN(C)[C@H](C)[C@@H](O)[C@]1(C)O` [Azithromycin], which Observed MIC [1] is on record?
**A.** 16 µg/mL

**Q.** For `C[C@@H](O)[C@H]1C(=O)N2C(C(=O)O)=C(S[C@@H]3CN[C@H](C(=O)N(C)C)C3)[C@H](C)[C@H]12` [MeropeneM], which Observed MIC [1] is on record?
**A.** 2 µg/mL

**Q.** With `CC(C)(O/N=C(\C(=O)N[C@@H]1C(=O)N2C(C(=O)[O-])=C(C[n+]3ccccc3)CS[C@H]12)c1csc(N)n1)C(=O)O` [Ceftazidime] as the molecule, how does the Observed MIC [1] read?
**A.** 16 µg/mL

**Q.** Which Observed MIC [1] does the source give for `CCn1cc(C(=O)O)c(=O)c2cc(F)c(N3CCNCC3)cc21` [Norfloxacin] here?
**A.** 16 µg/mL

**Q.** What does the source list for Chloramphenicol?
**A.** PNECr [2]: 12.5; Observed MIC [1]: 125 µg/mL

**Q.** What does the source list for Vancomycin?
**A.** PNECr [2]: 12.5; Observed MIC [1]: 125 µg/mL

**Q.** With `OC(Cn1cncn1)(Cn1cncn1)c1ccc(F)cc1F` [Fluconazol] as the molecule, how does the Observed MIC [1] read?
**A.** 64 µg/mL

**Q.** For `C[C@@H]1[C@H](O)[C@@H](C)/C=C/C=C/C=C/C=C/C=C/C=C/C=C/[C@H](O[C@@H]2O[C@H](C)[C@@H](O)[C@H](N)[C@@H]2O)C[C@@H]2O[C@](O)(C[C@@H](O)C[C@@H](O)[C@H](O)CC[C@@H](O)C[C@@H](O)CC(=O)O[C@H]1C)C[C@H](O)[C@H]2C(=O)O` [Amphotericin B], which PNECr [2] is on record?
**A.** 0.8

**Q.** And the Observed MIC [1]?
**A.** 8 µg/mL

**Q.** What does the source list for Penicillin?
**A.** PNECr [2]: 0.4; Observed MIC [1]: 4 µg/mL

**Q.** Which Observed MIC [1] does the source give for `NC1CCN(c2c(F)cc3c(=O)c(C(=O)O)cn(C4CC4)c3c2Cl)C1` (stereo not drawn) [Clinafloxacin] here?
**A.** 32 µg/mL

**Q.** With `Nc1nc(/C(=C/CC(=O)O)C(=O)N[C@@H]2C(=O)N3C(C(=O)O)=CCS[C@H]23)cs1` [Ceftibuten] as the molecule, how does the Observed MIC [1] read?
**A.** 8 µg/mL

**Q.** For `C[C@@H](O)[C@H]1C(=O)N2C(C(=O)O)=C(S[C@@H]3CN[C@H](CNS(N)(=O)=O)C3)[C@H](C)[C@H]12` [Doripenan], which PNECr [2] is on record?
**A.** 0.2

**Q.** And the Observed MIC [1]?
**A.** 2 µg/mL

**Q.** Which Observed MIC [1] does the source give for `NC[C@H]1O[C@H](O[C@H]2[C@H](O)[C@@H](O[C@H]3O[C@H](CO)[C@@H](O)[C@H](N)[C@H]3O)[C@H](N)C[C@@H]2N)[C@H](N)C[C@@H]1O` [Tobramycin] here?
**A.** 16 µg/mL
